Results as given in patent US11261201B2 (priority 2018, dated 2022).
In brackets after ≈: the same amount, converted by molar mass. Read-outs that look alike come from different tables or passages of the source.

Tests used:
H37RvMA = assay: Tuberculosis Alamar Blue/Resazurin assay (MIC); type: cell-based; conditions: read-out: WT H37Rv MTB Activity
E. coli = assay: Gram negative MIC protocol (OD600, LB, 24 h); conditions: Escherichia coli
Experimental: (§1) Overnight bacterial cultures were grown in LB with no added antibiotics at 37° C. with shaking. A 1:1000 dilution of these cultures into LB was exposed to concentration gradients of compounds in 96-well plates (100 μL per well assay volume). Resulting plates were incubated at 37° C. for 24 h without shaking, and OD600 was measured at the end of the incubation. MICs were determined as the lowest concentrations at which OD600 remained at baseline.

A. baumannii = assay: Gram negative MIC protocol (OD600, LB, 24 h); conditions: Acinetobacter baumannii, read-out: MIC A. baumannii LB Media, A. baumannii, LB media, 24 h, OD600
Experimental: as §1

[1] = Mycobacterium tuberculosis, H37RV, WT H37Rv MTB
[2] = read-out: MIC E. coli delta-TolC LB Media, E. coli delta-TolC, LB media, OD600
[3] = read-out: MIC WT E. coli LB Media, WT E. coli, LB media, OD600
[4] = read-out: MIC E. coli delta-TolC LB Media, E. coli delta-TolC strain, LB media, 24 h, OD600
[5] = read-out: MIC WT E. coli LB Media, wild-type E. coli, LB media, 24 h, OD600
[6] = Mycobacterium tuberculosis, H37RV

SMILES	MIC (H37RvMA; [1])	MIC (E. coli; [2])	MIC (E. coli; [3])	MIC (A. baumannii)	MIC (E. coli; [4])	MIC (E. coli; [5])	MIC (H37RvMA; [6])	MIC (H37RvMA; WT H37Rv MTB)
c1ccc(CNCCC2CSc3ccccc3O2)cc1 (stereo not shown) [B118]	> 150 µM	> 150 µM	> 150 µM	> 150 µM	–	–	–	–
COc1ccc2ccccc2c1CCNCc1ccccc1 [B200]	91 µM (≈ 26.5 µg/mL)	–	–	300 µM (≈ 87.4 µg/mL)	170 µM (≈ 49.5 µg/mL)	> 300 µM	–	–
COC(=O)Cc1cccc(CNCCC2CCCCC2)c1 [B440, methyl 2-(3-(((2-cyclohexylethyl)amino)methyl)phenyl)acetate]	150 µM (≈ 43.4 µg/mL)	> 150 µM	> 150 µM	> 150 µM	–	–	–	–
COc1ccc(CNC(=O)COc2ccccc2CNC(C)CC2CCCCC2)cc1 (stereo not shown) [B303]	91 µM (≈ 38.6 µg/mL)	–	–	> 150 µM	7 µM (≈ 2.97 µg/mL)	> 150 µM	–	–
O=C1Cc2ccccc2CN1CCC1CCCCCC1 [B422, 2-(2-cycloheptylethyl)-1,4-dihydroisoquinolin-3(2H)-one]	2.5 µM (≈ 0.679 µg/mL)	150 µM (≈ 40.7 µg/mL)	> 150 µM	> 150 µM	–	–	–	–
COc1ccc(C(C)C(C)NCc2ccccc2)cc1 (stereo not shown) [B28]	–	> 150 µM	> 150 µM	> 150 µM	–	–	> 150 µM	–
c1ccc(CNCCN2CCCc3ccccc32)cc1 [B148]	150 µM (≈ 40 µg/mL)	> 150 µM	> 150 µM	> 150 µM	–	–	–	–
c1ccc(CNCCC23CC4CC(CC(C4)C2)C3)cc1 [B104]	55 µM (≈ 14.8 µg/mL)	91 µM (≈ 24.5 µg/mL)	> 150 µM	> 150 µM	–	–	–	–
O=C1Cc2ccccc2CN1CCc1ccccc1 [B421, 2-phenethyl-1,4-dihydroisoquinolin-3(2H)-one]	55.1 µM (≈ 13.8 µg/mL)	> 150 µM	> 150 µM	> 150 µM	–	–	–	–
Oc1cccc(CNCCC2CCCCC2)c1 [B356]	> 150 µM	–	–	> 150 µM	> 150 µM	> 150 µM	–	–
CC1CCC(CC(C)NCc2ccccc2OCc2ccccc2F)CC1 (stereo not shown) [B465, N-(2-((2-fluorobenzyl)oxy)benzyl)-1-(4-methylcyclohexyl)propan-2-amine]	20 µM (≈ 7.39 µg/mL)	7 µM (≈ 2.59 µg/mL)	> 150 µM	90 µM (≈ 33.3 µg/mL)	–	–	–	–
c1ccc(CNCCc2cccc3ccccc23)cc1 [B192]	33 µM (≈ 8.63 µg/mL)	96 µM (≈ 25.1 µg/mL)	300 µM (≈ 78.4 µg/mL)	300 µM (≈ 78.4 µg/mL)	–	–	–	–
CC(C)(CNCc1ccccc1)C1=CCCCC1 [B72]	> 150 µM	> 150 µM	> 150 µM	> 150 µM	–	–	–	–
CC(NCc1ccccc1)C1CCCCC1 (stereo not shown) [B134]	> 150 µM	> 150 µM	120 µM (≈ 26.1 µg/mL)	> 150 µM	–	–	–	–
COc1cccc(CNCCC2=CCCCC2)c1 [B143]	> 150 µM	> 150 µM	> 150 µM	> 150 µM	–	–	–	–
CC(Cc1ccn(C(C)C)n1)NCc1ccccc1 (stereo not shown) [B47]	–	> 150 µM	> 150 µM	> 150 µM	–	–	> 150 µM	–
CC(CC1CCCCC1)NCc1ccccc1OCC(O)C(C)C (stereo not shown) [B342]	91 µM (≈ 30.3 µg/mL)	–	–	150 µM (≈ 50 µg/mL)	4 µM (≈ 1.33 µg/mL)	150 µM (≈ 50 µg/mL)	–	–
Cc1cc(COc2ccccc2CNC(C)CC2CCCCC2)on1 (stereo not shown) [B241]	> 150 µM	–	–	> 150 µM	4 µM (≈ 1.37 µg/mL)	150 µM (≈ 51.4 µg/mL)	–	–
C=CCOc1ccccc1CNC(C)CC1CCCCC1 (stereo not shown) [B289]	150 µM (≈ 43.1 µg/mL)	–	–	150 µM (≈ 43.1 µg/mL)	3 µM (≈ 0.862 µg/mL)	91 µM (≈ 26.2 µg/mL)	–	–
C1=C(CC2CCCN2Cc2ccccc2)CCCC1 (stereo not shown) [B161]	> 150 µM	> 300 µM	> 300 µM	> 150 µM	–	–	–	–
CC(CC1CCCCC1)NCc1ccccc1CS(=O)(=O)N(C)C (stereo not shown) [B437, 1-(2-(((1-cyclohexylpropan-2-yl)amino)methyl)phenyl)-N,N-dimethylmethane sulfonamide]	> 150 µM	4 µM (≈ 1.41 µg/mL)	150 µM (≈ 52.9 µg/mL)	> 150 µM	–	–	–	–
C1=CC2CCC1CC2CNCc1ccccc1 (stereo not shown) [B122]	150 µM (≈ 34.1 µg/mL)	> 150 µM	> 150 µM	> 150 µM	–	–	–	–
CC(CC1CCCCC1)NCc1ccccc1OC1CCCCC1C (stereo not shown) [B389, 1-cyclohexyl-N-(2-((2-methylcyclohexyl)oxy)benzyl)propan-2-amine]	33.4 µM (≈ 11.5 µg/mL)	–	–	91 µM (≈ 31.3 µg/mL)	3 µM (≈ 1.03 µg/mL)	> 150 µM	–	–
O=C(O)C(CC1CCCCC1)NCc1ccccc1 (stereo not shown) [B204, 2-(benzylamino)-3-cyclohexylpropanoic acid]	–	–	–	> 300 µM	> 300 µM	> 300 µM	–	>150 µM
CC(CC1CCCCC1)NCc1ccccc1OCc1ccccc1Cl (stereo not shown) [B382]	12.2 µM (≈ 4.54 µg/mL)	–	–	55 µM (≈ 20.5 µg/mL)	3 µM (≈ 1.12 µg/mL)	55 µM (≈ 20.5 µg/mL)	–	–
O=C1Cc2ccccc2CN1CCC1CCCCC1 [B379]	–	–	–	> 150 µM	150 µM (≈ 38.6 µg/mL)	> 150 µM	–	–
c1ccc(CNCCC2CCSCC2)cc1 [B332]	–	–	–	> 150 µM	> 150 µM	> 150 µM	–	–
